{"source": "patent EP4732839A1", "about": "“USE OF COMPOUND IN TREATMENT OF LIVER DISEASES” (priority 2023, dated 2025)", "key": {"[1]": {"format": "in vivo, C57BL/6J wild-type female mice", "procedure": "C57BL/6J wild-type female mice (6 weeks old) were randomly grouped. After administration at different doses, whole blood and liver tissues of the mice were separately collected at 1 h, 2 h, and 4 h for detection of a plurality of parameters to evaluate the effect of the drugs on the liver.\nLiver tissues and blood were collected at 1 h, 2 h, and 4 h after single dosing.\nThe supernatant was collected and stored (-20 °C); • (3) IFN-α, IP-10, IL-6, and TNF-α were detected using an ELISA kit. • (C) Remaining liver tissue-HE staining and pathological evaluation. • (D) 1/2 blood (whole blood)-liver function parameter detection: AST (aspartate aminotransferase), ALT (alanine aminotransferase/glutamate pyruvate transaminase), ALP (alkaline phosphatase), ALB (albumin), and GGT (γ-glutamyl transferase). • (E) 1/2 blood-serum preparation-reserve for ELISA."}, "Hep3B-luc": {"tested_on": "Hep3B-luc", "test": "Hep3B-luc liver orthotopic xenograft mouse model", "conditions": "Hep3B-luc liver orthotopic tumor model, 3 mg/kg"}, "in vivo": {"test": "in vivo", "procedure": "C57BL/6 mice, 8 weeks old, female/male, 27, supplier: SPF (Beijing) Biotechnology Co., Ltd.\nThe body weight of the animals was measured and recorded daily.\nAll groups were subjected to clinical observations before administration and 1 to 2 h after administration, and additional observations were performed if necessary. Deaths and mortality were checked twice daily. The observations should include, but are not limited to, the following: fur condition, activity, mental status, vomiting, diarrhea, and abnormal secretions around the eyes. All animals should be observed on the day of necropsy, and any abnormal findings should be recorded.\nThe rectal temperature of all animals was measured and recorded at 0 h before administration and at 2 h, 4 h, 8 h and 24 h after administration.\nThe experiment was terminated on day 7 after administration. A gross necropsy was performed to examine abdominal and thoracic organs for lesions, and the spleen and liver were collected for weighing."}, "H22-luc": {"tested_on": "H22-luc", "conditions": "H22-luc orthotopic model, 3 mpk, IG, QW × 3, BLI 21 days post-dose, P < 0.0001", "protocol": "The cells were placed in an incubator at 37 °C with 5% CO2 and passaged every 1 to 2 days depending on the cell density.\nThe cell concentration (H22-luc, 2.0E8/mL) was adjusted, and the cells were mixed well with Matrigel at a ratio of 1:1. The mixture was placed on ice for subsequent injection experiments, and was mixed thoroughly by shaking with Vortex before use.\n• (1) The mice were weighed before surgery and anesthetized by intraperitoneal injection of avertin at 0.15 mL/10 g body weight. […] The needle was inserted into the liver at a 30-degree angle relative to the liver surface. After the needle was inserted, the needle was made parallel to the tabletop and advanced in parallel for about 3 mm. 10 µL of H22-luc cell suspension was slowly injected, and a rapid whitening (white plaque) or turbid translucent vacuolation over most of the liver lobe in the injection area was observed. • (5) After injection, a cotton swab was used to apply slight pressure at the needle insertion site while the needle was slowly withdrawn. The cotton swab was removed until no bleeding was observed. • (6) The liver lobe was gently pushed back into the abdominal cavity, and the muscle layer and skin were sutured.\nThe experimental data were analyzed using Graphpad Prism 8. The experimental data were expressed as mean ± SD."}, "[2]": {"test": "Liver microsome metabolic stability (human)", "conditions": "Human liver microsomes, 1 µM compound, 1 mg/mL, NADPH, 37 °C", "protocol": "The metabolic stability of the compounds in in vitro liver microsomes was evaluated. The procedures and steps were as follows: At 37 °C, 1 µM of the compounds was incubated in 1 mg/mL liver microsomes. The reaction system was a 0.1 M potassium phosphate buffer (pH 7.4) containing 3 mmol/L MgCl2 and 1 mmol/L NADPH. At the beginning of the reaction, the small molecules and the liver microsomes were pre-incubated at 37 °C for 10 min, and subsequently a cofactor NADPH was added to initiate the metabolic reaction. The reaction was quenched at 0 min, 5 min, 10 min, 20 min, 30 min, and 60 min using three volumes of ice-cold methanol containing an internal standard (200 nM labetalol). After incubation at room temperature for 10 min, the samples were centrifuged at 4000 rpm at 4 °C for 20 min, and the supernatants were collected, diluted with chromatography-grade purified water in a 1:1 ratio, and then subjected to quantitative analysis. […] After a 6-minute chromatographic separation on a C18 column (50 × 2.1 mm; 2.6 µm) under a gradient mobile phase of 0.1% formic acid in water, the peaks corresponding to specified ionic signals were detected. […] The detailed operation process was as follows: • 1) The compound working solution was added to all 96-well reaction plates (T0, T5, T10, T20, T30, and T60) at 10 µL/well, except the blank wells. • 2) The microsomal solution was added to all the reaction wells (T0, T5, T10, T20, T30, T60, and blank wells) at 80 µL/well. • 3) The plates were pre-incubated at 37 °C for 10 min. • 4) After pre-incubation, NADPH was added to each reaction plate at 10 µL/well to initiate the reaction. • 5) At the set end time point, a 4 °C methanol solution (containing an internal standard: 200 nM labetalol) was added to each reaction plate at 300 µL/well to quench the reaction. • 6) Each plate was sealed and shaken for 10 min. • 7) The mixture was shaken well and centrifuged at 4000 rpm at 4 °C for 20 min. • 8) 300 µL of the supernatant was collected, and HPLC-grade water was added at 300 µL/well. The mixture was well mixed and then subjected to LC-MS analysis.\n(§1) The metabolic half-life (T1/2) and the metabolic clearance rate (CLint(mic)) (µL/min/mg) were calculated using a first-order kinetic equation."}, "[3]": {"test": "Liver microsome metabolic stability (murine)", "conditions": "Murine liver microsomes, 1 µM compound, 1 mg/mL, NADPH, 37 °C", "protocol": "The metabolic stability of the compounds in in vitro liver microsomes was evaluated. The procedures and steps were as follows: At 37 °C, 1 µM of the compounds was incubated in 1 mg/mL liver microsomes. The reaction system was a 0.1 M potassium phosphate buffer (pH 7.4) containing 3 mmol/L MgCl2 and 1 mmol/L NADPH. At the beginning of the reaction, the small molecules and the liver microsomes were pre-incubated at 37 °C for 10 min, and subsequently a cofactor NADPH was added to initiate the metabolic reaction. The reaction was quenched at 0 min, 5 min, 10 min, 20 min, 30 min, and 60 min using three volumes of ice-cold methanol containing an internal standard (200 nM labetalol). After incubation at room temperature for 10 min, the samples were centrifuged at 4000 rpm at 4 °C for 20 min, and the supernatants were collected, diluted with chromatography-grade purified water in a 1:1 ratio, and then subjected to quantitative analysis. […] After a 6-minute chromatographic separation on a C18 column (50 × 2.1 mm; 2.6 µm) under a gradient mobile phase of 0.1% formic acid in water, the peaks corresponding to specified ionic signals were detected. […]\nas §1"}, "[4]": {"tested_on": "Peripheral blood mononuclear cells (hPBMCs)", "test": "Cytokine secretion after stimulation of PBMCs", "conditions": "hPBMCs from 3 donors, 24 h of stimulation"}, "[5]": {"conditions": "C57BL/6 mice, single intragastric administration"}}, "data": [{"smiles": "COCCNc1nc(N)nc2ccc(Cc3ccc(CN4CCOCC4)cc3)nc12", "note": "[Compound II]", "values": [{"measurement": "AST levels", "setting": "[1]; all administration groups, no statistically significant differences", "value": "exceeded the normal reference range"}, {"measurement": "ALP levels", "setting": "[1]; all dose groups", "value": "within the normal reference value range"}, {"measurement": "GGT levels", "setting": "[1]; all dose groups", "value": "significantly lower than that of the control group"}, {"measurement": "ALB level", "setting": "[1]; at 2 h and 4 h", "value": "significantly lower than that of the control group"}, {"measurement": "ALT elevation by clinical adverse reaction grading", "setting": "[1]; single administration, Grade 1 AE = ALT exceeding three times the normal value", "value": "did not result in ALT elevation to grade 1 AE"}, {"measurement": "ALT", "setting": "[1]; whole blood, 3/10/20 mpk i.g. single dose, 1 h, 2 h, 4 h", "value": "increased in all groups"}, {"measurement": "maximum body weight loss", "setting": "Hep3B-luc", "value": 5.4, "unit": "%"}, {"measurement": "TGI", "setting": "Hep3B-luc; IG, QW × 3, p < 0.05", "value": 61.6, "unit": "%"}, {"measurement": "maximum body weight loss rate", "setting": "MC38-luc; MC38-luc liver metastasis model, compound II 3 mpk IG QW × 3, PD-1 10 mpk IP BIW × 2", "value": 3.9, "unit": "%"}, {"measurement": "TGI", "setting": "MC38-luc; MC38-luc liver metastasis model, compound II 3 mpk IG QW × 3, PD-1 10 mpk IP BIW × 2, 17 days post-dose", "value": 63.3, "unit": "%"}, {"measurement": "CD8+ T cells in peripheral lymph nodes", "setting": "MC38-luc; flow cytometry, compared with vehicle group", "value": "no significant difference"}, {"measurement": "Kuffer cells in the liver tissue", "setting": "MC38-luc; flow cytometry, compared with vehicle group and PD-1 antibody group", "value": "significantly induced an increase"}, {"measurement": "Cage-side observation", "setting": "in vivo; 20 mg/kg, group 6, male animal No. 35, day 2", "value": "white secretions around the eyes"}, {"measurement": "rectal temperature", "setting": "in vivo; 2 h after treatment, significant difference vs vehicle group, returned to normal 4 h, 8 h and 24 h", "value": "decreased"}, {"measurement": "Adverse reactions at maximum tolerated dose/probability", "setting": "in vivo; [5]", "value": "White secretion around the eyes (1/6)"}, {"measurement": "Weight loss at maximum tolerated dose: whether recovered", "setting": "in vivo; [5]", "value": "Yes"}, {"measurement": "Weight loss rate at maximum tolerated dose", "setting": "in vivo; [5]", "value": 14, "unit": "%"}, {"measurement": "With or without mouse death", "setting": "in vivo; [5]", "value": "No"}, {"measurement": "body weight", "setting": "in vivo; male and female animals, 10-40 mg/kg single administration, began to recover from day 3 to day 7", "value": "decreased after the single administration"}, {"measurement": "MTD at 168 h", "setting": "in vivo; mouse, in vivo, po", "value": 40, "unit": "mg/kg"}, {"measurement": "TGI", "setting": "H22-luc", "value": 83.4, "unit": "%"}, {"measurement": "k", "setting": "[2]", "value": 0.0197, "unit": "L/min"}, {"measurement": "k", "setting": "[3]", "value": 0.0460, "unit": "L/min"}, {"measurement": "IFN-α stimulating activity", "setting": "[4]", "value": "strong"}, {"measurement": "IFN-α, IFN-γ, and IL-1240 secretion", "setting": "[4]; 4 concentrations, compared with GS-9688", "value": "significantly stronger activity and magnitude"}]}]}
